Test results: patent US20200155490A1, “IMMUNOMOUDULATORY AGENTS AND METHODS OF USE THEREOF” (priority 2016, published 2020)
Entries after “also recorded” stand apart in the source; their conditions may differ.

Key:
[1] = system: NLRP3 inflammasome in BMDM; assay: NLRP3 inflammasome activation in BMDM (LPS priming + ATP, nigericin or MSU); assay type: cell-based, mouse; settings: for production of IL-18: then ATP 3 mM 45 min; for protein expression of pro-IL-1β: 0.25 mM 12 h
Protocol: (§1) The concentration of cytokines in culture supernatants was determined using the following kits according to manufacturer's instructions. DuoSet® kits for mouse IL-1β/IL-1F2, TNF-α and IL-6 (all R&D systems); mouse IL-12 ELISA MAX™ Deluxe Set (BioLegend); mouse IL-18 ELISA kit (MBL). Nitric oxide was quantified using Griess Reagent System (Promega).
(§2) BMDM were stimulated as indicated, washed with PBS, lysed in RIPA Lysis Buffer System (Santa Cruz) and boiled in sample loading buffer containing SDS and 100 mM DTT. Proteins were separated by electrophoresis through 4-20% polyacrylamide gradient gels (BioRad). After electrophoretic transfer of proteins onto PVDF membranes, nonspecific binding was blocked by incubation with 5% skim milk and membranes were probed with primary antibodies anti-IL1β (1:1000 dilution; 12507S, CellSignaling), NIrp3 (1:500 dilution; NBP2-12446, Novus), HIF-1α (1:500 dilution; NB100-449, Novus), α-tubulin (1:2000 dilution; 2125S, CellSignaling), ASC (1:1000 dilution; sc-22514-R, Santa Cruz) followed by incubation with secondary antibodies (horseradish peroxidase-conjugated anti-rabbit, 1:10,000 dilution; sc-2030, Santa Cruz) and visualized with Clarity™ western ECL substrate (Biorad).

[2] = system: bone marrow-derived macrophage (BMDM); assay: Activation of BMDM with LPS or LPS+IFN-γ (cytokines, iNOS, HIF-1α); assay type: cell-based, mouse
Protocol: Cells were incubated with FcγR-blocking anti-CD16/32 (clone 93, Biolegend) before staining with antibodies to F4/80 (clone BM8, eBioscience) and CD11b (clone M1/70; BD Pharmingen) together with LIVE/DEAD dye (Invitrogen). […] Cells were acquired on a Canto II flow cytometer (BD Biosciences) and data were analyzed using FlowJo v.9.5.2 software (Tree Star).
as §1, §2

[3] = system: bone-marrow derived macrophages; assay: Cell viability of bone-marrow derived macrophages; assay type: cell-based, mouse
Protocol: Live cells were determined via flow cytometry using a live/dead cell fluorescent dye. Shown are representative data from three independent experiments.
Cells were incubated with FcγR-blocking anti-CD16/32 (clone 93, Biolegend) before staining with antibodies to F4/80 (clone BM8, eBioscience) and CD11b (clone M1/70; BD Pharmingen) together with LIVE/DEAD dye (Invitrogen). Intracellular iNOS was detected with mouse anti-NOS2 (clone C-11, Santa Cruz Biotechnology) followed by incubation with fluorochrome-conjugated anti-mouse IgG (Clone A85-1, BD Pharmingen) using the BD cytofix/cytoperm Kit (BD Biosciences) according to manufacturer's instructions. Cells were acquired on a Canto II flow cytometer (BD Biosciences) and data were analyzed using FlowJo v.9.5.2 software (Tree Star).

[4] = system: naïve CD4 T cells under Th17 polarizing conditions; assay: Th17 differentiation of naïve CD4 T cells; assay type: cell-based, C56BL/6 mice; settings: for frequency of IL-17-producing cells (Th17 differentiation): Th17 polarizing conditions; for frequency of IL-17-producing cells (Th17 differentiation) / cytotoxic effect (frequency of live CD4 T cells): flow cytometry; for cytotoxic effect (frequency of live CD4 T cells): day 4 after Th17 polarization
Protocol: FIG. 25C is a series of plots showing DI inhibits also the secretion of IL-17 (left) and GM-CSF (right) in the supernatant of CD4 T cells. On day 4 cells were collected, washed, and re-stimulated in equal numbers for each condition with anti-CD3 and anti-CD28. After 24 h supernatants were collected and assayed for IL-17 and GM-CSF by ELISA.

[5] = system: myocardial ischemia-reperfusion injury; assay: Myocardial ischemia-reperfusion model; assay type: in vivo, mice; settings: for myocardial infarct size: 30 min ischemia, 2 h reperfusion, intravenous infusion during ischemia
Protocol: In vivo ischemia-reperfusion modeling was performed as previously described. 8 to 10 week-old mice were anesthetized and subjected to an open chest procedure of reversible left anterior descending artery ligation for 30 min and subsequent reperfusion for 2 hours. Saline or DI (4 mg/Kg/min) was infused intravenously for 10 min before and throughout the ischemic period. A cardioplegic solution followed by TTC at 37° C. and then Evans Blue (after reocclusion of the LAD) was injected in a retrograde manner through the aorta in situ. The left ventricle was then sectioned into 5 slices and image analysis was performed with Image J (NIH).

[6] = system: AIM2-inflammasome in BMDM; assay: AIM2-inflammasome activation in BMDM (poly dA:dT transfection); assay type: cell-based, mouse; settings: DI 12 h, 5 h
Protocol: as §1

[7] = system: anti-CD3-induced inflammation; assay: Anti-CD3-induced inflammation in mice (serum IL-17); assay type: in vivo; settings: 4 mg or 20 mg DI ip, 48 h after anti-CD3, ELISA
Protocol: FIG. 26A is a plot showing DI-treatment diminished in vivo systemic IL-17 production. Circulating serum IL-17 levels were determined by ELISA 48 h after anti-CD3-induced inflammation in mice treated or not with the indicated doses of DI. Briefly, mice were received intraperitoneal (ip) injections of 4 mg (n=10) or 20 mg (n=5) DI or vehicle (PBS; shown as 0; n=10) 3 h prior (−3 h) to an anti-CD3 injection (given at 0 h ip) and every 20 h thereafter until mice were analyzed at 48 h.

[8] = system: mitochondrial ROS in BMDM; assay: Measurement of mROS (MitoSOX) in BMDM; assay type: cell-based, mouse; settings: 0.25 mM 12 h, LPS 100 ng/ml; MitoSOX flow cytometry
Protocol: Cells were incubated with DI (0.25 mM, 12 h) or vehicle and then loaded with 5 μM of the mitochondrial superoxide indicator MitoSOX (Invitrogen) at 37° C. for 30 min in HBSS supplemented with 0.1% BSA. Cells were then rinsed with warm culture medium and LPS treatment was started 1 h later. Cells were harvested and analyzed on a Canto II flow cytometer (Becton-Dickinson).

[9] = system: bone marrow-derived macrophage (BMDM); assay: RNA-seq transcriptional profiling of LPS-stimulated BMDM; settings: for pro-inflammatory transcripts / inflammatory markers (Nos2, II6, II12b etc.): 0.25 mM 12 h pretreatment, LPS 100 ng/ml 4 h
[10] = system: BMDM infected with S. typhimurium; assay: In vitro infection of BMDM with Salmonella typhimurium; assay type: cell-based, mouse
[11] = system: IMQ-induced skin inflammation; assay: Imiquimod (IMQ)-induced psoriasis model; assay type: in vivo; settings: mouse ear skin, 20 mg DI ip daily, IMQ cream 7 days
Protocol: IMQ cream (5%) was applied on mouse ear skin for 7 days and skin pathology was assessed on day 8. Mice received 20 mg DI ip. (DI+IMQ) or vehicle ip (PBS; IMQ) was administered one day prior to IMQ application and every day thereafter until day 7. DI group: received 20 mg DI as above but no IMQ; naïve mice received vehicle as above but no IMQ.

unstimulated BMDM = assay: Extracellular flux analysis (Seahorse); assay type: cell-based, mouse; settings: 0.25 mM DI 12 h
Protocol: Extracellular acidification rate (ECAR) and Oxygen Consumption rate (OCR) were measured in real time using Seahorse technology as described previously.

[12] = system: neonatal rat cardiac myocytes; assay: Hypoxia modeling in neonatal rat cardiac myocytes; settings: NRCMs, hypoxia 24 h, DI pretreatment
Protocol: Neonatal rat cardiac myocytes were isolated and cultured as described. Cells were subjected to hypoxia in an oxygen control cabinet (Coy Laboratories, Grass Lake, Mich.) mounted within an incubator and equipped with oxygen controller and sensor for continuous oxygen level monitoring. […] Cell death was assessed with the Live-Dead Cytotoxicity Viability kit for Mammalian cells (Invitrogen) and ROS generation was monitored by flow cytometric assessment of carboxy-H2DCFDA fluorescence (following incubation in 10 μmol/L for 30 minutes), as previously described.

[13] = system: Mycobacterium tuberculosis (Mtb) H37Rv in BMDM; assay: Infection of BMDM with Mycobacterium tuberculosis H37Rv; assay type: cell-based
Protocol: To address this question, BMMDs were infected with Mycobacterium tuberculosis (Mtb) H37Rv strain (MOI of 1). Three treatment groups were set up: untreated macrophages, macrophages pretreated with interferon, and macrophages pretreated with interferon and then treated with itaconate. The infection was then allowed to proceed for 7 days. On day 7 post infection, serial dilutions of infected BMDM homogenates were plated on 7H11 agar plates and colony forming unit (CFU) determined.

Salmonella infection = Salmonella infection in vivo; settings: treated vs untreated mice; i.v. administration
[14] = molecular target: T1, succinate dehydrogenase (Sdh) (Mus musculus, UniProt Q8K2B3); assay: Sdh activity assay (Complex II Enzyme Activity Microplate Assay); assay type: biochemical; settings: Sdh purified from BV2 cells or BMDM
T1 construct: Sdh was purified from BV2 cells (a macrophage cell line) or BMDM; endogenous in cells; host or cells: BV2 cells (macrophage cell line) or mouse BMDM; in-well capture with the Abcam Complex II Enzyme Activity Microplate Assay Kit
T1 sequence (Q8K2B3 43-664): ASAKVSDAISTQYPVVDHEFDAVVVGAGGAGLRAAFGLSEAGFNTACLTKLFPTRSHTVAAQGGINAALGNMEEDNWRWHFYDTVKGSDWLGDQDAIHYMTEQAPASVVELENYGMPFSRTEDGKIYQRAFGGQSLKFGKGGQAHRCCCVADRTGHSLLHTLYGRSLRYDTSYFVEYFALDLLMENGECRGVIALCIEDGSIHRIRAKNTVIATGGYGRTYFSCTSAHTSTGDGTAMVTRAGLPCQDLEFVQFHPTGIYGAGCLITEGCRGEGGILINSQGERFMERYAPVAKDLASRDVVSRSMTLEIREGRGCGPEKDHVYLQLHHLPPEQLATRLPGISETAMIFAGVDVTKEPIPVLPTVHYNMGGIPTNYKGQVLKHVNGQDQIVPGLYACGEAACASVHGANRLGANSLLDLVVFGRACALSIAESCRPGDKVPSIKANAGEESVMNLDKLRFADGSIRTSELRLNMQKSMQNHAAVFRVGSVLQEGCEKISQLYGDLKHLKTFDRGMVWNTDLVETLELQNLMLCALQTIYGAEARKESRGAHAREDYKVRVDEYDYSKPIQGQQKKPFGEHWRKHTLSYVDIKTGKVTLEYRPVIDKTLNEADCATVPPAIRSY
T1 sequence (Q9CQA3 31-282 partner): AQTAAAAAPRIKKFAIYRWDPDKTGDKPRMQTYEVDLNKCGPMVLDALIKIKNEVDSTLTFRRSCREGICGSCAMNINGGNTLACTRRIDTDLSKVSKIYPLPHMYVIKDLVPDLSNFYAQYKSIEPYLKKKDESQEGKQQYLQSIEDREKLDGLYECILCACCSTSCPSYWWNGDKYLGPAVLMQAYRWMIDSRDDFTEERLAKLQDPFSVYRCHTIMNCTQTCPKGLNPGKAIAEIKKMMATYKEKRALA
T1 sequence (Q9CZB0 30-169 partner): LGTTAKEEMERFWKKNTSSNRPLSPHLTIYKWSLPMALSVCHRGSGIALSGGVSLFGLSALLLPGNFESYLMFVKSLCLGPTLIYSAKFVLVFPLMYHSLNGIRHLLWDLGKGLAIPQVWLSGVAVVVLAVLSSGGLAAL
T1 sequence (Q9CXV1 57-159 partner): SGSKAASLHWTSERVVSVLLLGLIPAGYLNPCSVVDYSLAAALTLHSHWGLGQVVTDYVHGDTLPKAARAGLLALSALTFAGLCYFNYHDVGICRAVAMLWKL
Protocol: The test compounds were diluted in activity buffer and added to the phospholipid mixture 5 min before adding the activity solution. Absorbance was measured at 600 nm.

[15] = 12 h pretreatment, LPS 100 ng/ml 4 h
[16] = Western blot, LPS 4 h, ATP 45 min
[17] = Western blot, DI 0.25 mM 12 h, LPS 4 h, ATP 45 min
[18] = BMDM pretreated with DI (12 h; 0.25 mM), LPS 24 h
[19] = day 4 cells re-stimulated with anti-CD3 and anti-CD28, 24 h, ELISA
[20] = BMDM pre-treated with 0.25 mM DI 12 h, infected with live S. typhimurium

SMILES: C=C(CC(=O)OC)C(=O)OC [DI, dimethyl itaconate]
- production of IL-18 [1, 15]: potently inhibited
- production of mature IL-1β ([1]; 12 h pretreatment, LPS 100 ng/ml 4 h, then ATP, nigericin or MSU): potently inhibited
- inflammasome-induced cytotoxicity ([1]; DI 0.25 mM 12 h, LPS 4 h, ATP 3 mM 45 min, live/dead dye): only moderately
- protein expression of pro-IL-1β [1, 16]: decreased
- protein expression of ASC [1, 17]: decreased
- protein expression of NLRP3 [1, 17]: decreased
- IL-12p70 secretion ([2]; BMDM pretreated with DI 12 h, then LPS and IFN-γ 24 h): suppressed
- IL-6 secretion [2, 18]: suppressed
- TNF-α production [2, 18]: remained unchanged
- iNOS protein expression ([2]; BMDM pretreated with DI (12 h; 0.25 mM), then LPS and IFN-γ 24 h, flow cytometry): suppressed
- concentration up to which not toxic [3]: up to 0.5 mM
- frequency of IL-17-producing cells (Th17 differentiation) [4]: dose-dependently inhibits
- cytotoxic effect (frequency of live CD4 T cells) [4]: moderate dose-dependent cytotoxic effect
- secretion of GM-CSF [4, 19]: inhibits
- secretion of IL-17 [4, 19]: inhibits
- area-at-risk ([5]; DI vs saline group): similar
- myocardial infarct size ([5]; mice): markedly reduced
- reduction in infarct size ([5]; mice, DI 4 mg/Kg/min i.v. 10 min before and throughout ischemia): 42%
- IL-1β production following AIM-2-dependent inflammasome activation [6]: impaired
- in vivo systemic IL-17 production (circulating serum IL-17) [7]: diminished
- LPS-induced upregulation of mROS [8]: impaired
- pro-inflammatory transcripts / inflammatory markers (Nos2, II6, II12b etc.) [9]: down-regulation
- expression of LPS-regulated genes involved in inflammasome function (II1b, II18, P2rx7, Casp1, Pycard) ([9]; DI 0.25 mM 12 h, LPS 4 h): modulated
- TNF-α levels [10, 20]: only marginally affected
- production of IL-1β [10, 20]: virtually abrogated
- production of IL-6 [10, 20]: virtually abrogated
- production of nitric oxide (NO) [10, 20]: virtually abrogated
- number of intracellular bacteria ([10]; DI-treated vs control BMDM, S. typhimurium): comparable
- dermal edema ([11]; H&E day 8): prevents dermal edema
- IL-17 associated pathology ([11]; assessed day 8): limits IL-17 associated pathology
- extracellular acidification rate (ECAR) (unstimulated BMDM): increased
- hypoxia-induced cell death [12]: dose-dependent protection
- hypoxia-induced increase in ROS generation [12]: attenuated

SMILES: COC(=O)CC(=O)OC [dimethyl malonate, reference compound]
- production of IL-18 [1, 15]: inhibited

SMILES: C=C(CC(=O)O)C(=O)O [itaconate, itaconic acid]
- protein expression of pro-IL-1β [1, 16]: significantly decreased
- frequency of IL-17-producing cells (Th17 differentiation) [4]: dose-dependently inhibits
- inhibition of Th17 compared with structurally similar dicarboxylic acids ([4]; all acids at 5 mM, day 3 post polarization): structure specific
- cytotoxic effect (frequency of live CD4 T cells) [4]: not cytotoxic
- myocardial infarct size ([5]; mice): reduces infarct size
- bacterial burden in the cells (CFU) ([13]; BMDM pretreated with interferon, Mtb MOI of 1, day 7 post infection): increased
- II1b levels in the supernatants ([13]; Mtb-infected BMDM, data not shown): decreased
- LPS-induced upregulation of mROS [8]: impaired
- pro-inflammatory transcripts / inflammatory markers (Nos2, II6, II12b etc.) [9]: significantly decreased
- mortality from Salmonella infection (Salmonella infection): succumb to Salmonella infection faster; also recorded: significantly accelerates mortality
- activity of purified Sdh [14]: blocked the activity of Sdh in a dose-dependent manner

SMILES: O=C(O)CC(=O)O [malonate, reference compound]
- myocardial infarct size ([5]; mice): reduces infarct size
- activity of purified Sdh [14]: blocked the activity of Sdh in a dose-dependent manner
